Consider 4 compounds from ChEMBL document CHEMBL1158921, “Antitumor agents, 116. Cytotoxic triterpenes from Maytenus diversifolia” (1990).

Holding throughout (type): functional
The subject of assay [1] is A549. The experiment in a line: Cytotoxicity against human A549 cells. The conditions noted are these: for EC50: read-out: ED50 (the source's name).
For assay [2], the system named is KB. The experiment in a line: Cytotoxicity against human KB cells.
The subject of assay [3] is L1210. The experiment in a line: Cytotoxicity against mouse L1210 cells.
Setting [4] is: read-out: ED50 (the source's name).

Structures are written as SMILES. Values after ≈ are worked out from the molar mass of the structure shown. Active and inactive are the calls of the source. The calls are words filed in the database; no cut-off is given here.

Regarding `C[C@H]1C(=O)CC[C@@H]2[C@]1(C)CC[C@H]1[C@@]2(C)CC[C@@]2(C)[C@@H]3C[C@](C)(CO)CC[C@]3(CO)CC[C@]12C`, the EC50 in assay [1] stood at 0.64 µg/mL (≈ 1.4 µM).

In the case of `C[C@H]1C(=O)CC[C@@H]2[C@]1(C)CC[C@H]1[C@@]2(C)CC[C@@]2(C)[C@@H]3C[C@](C)(C(=O)O)CC[C@]3(C)CC[C@]12C` [MAYTENOIC ACID], in assay [1], the EC50 stood at 0.21 µg/mL (≈ 0.46 µM).

On to `C[C@H]1C(=O)CC[C@@H]2[C@]1(C)CC[C@H]1[C@@]2(C)CC[C@@]2(C)[C@@H]3CC(C)(C)CC[C@]3(C(=O)O)CC[C@]12C`, for which the values for the EC50 in assay [1], in assay [2] (setting [4]) and in assay [3] (setting [4]) were 1.18 µg/mL (≈ 2.58 µM), 3.7 µg/mL (≈ 8.1 µM) and 2.95 µg/mL (≈ 6.46 µM), respectively.

As to `C[C@H]1[C@H](C)CC[C@]2(C(=O)O)CC[C@]3(C)C(=CC[C@@H]4[C@@]5(C)CC[C@H](O)C(C)(C)[C@@H]5CC[C@]43C)[C@H]12`, the outcome in assay [1], in assay [2] and in assay [3] was Active.
